Laboratory results taken from ChEMBL document CHEMBL1134676, “Synthesis and activity of novel and selective I(Ks)-channel blockers” (J Med Chem, 2001).

Assays:
[1] = molecular target: T1, Voltage-gated potassium channel, IKs; KCNQ1(Kv7.1)/KCNE1(MinK) (Homo sapiens, UniProt P15382+P51787); experiment: Inhibition of human IKs-channel expressed in Xenopus oocytes,(Experiment 1); assay type: cell-based, Oocyte
[2] = molecular target: T1, Voltage-gated potassium channel, IKs; KCNQ1(Kv7.1)/KCNE1(MinK); experiment: Inhibition of human IKs-channel expressed in Xenopus oocytes; assay type: cell-based, Oocyte

T1 sequence (P51787 whole entry): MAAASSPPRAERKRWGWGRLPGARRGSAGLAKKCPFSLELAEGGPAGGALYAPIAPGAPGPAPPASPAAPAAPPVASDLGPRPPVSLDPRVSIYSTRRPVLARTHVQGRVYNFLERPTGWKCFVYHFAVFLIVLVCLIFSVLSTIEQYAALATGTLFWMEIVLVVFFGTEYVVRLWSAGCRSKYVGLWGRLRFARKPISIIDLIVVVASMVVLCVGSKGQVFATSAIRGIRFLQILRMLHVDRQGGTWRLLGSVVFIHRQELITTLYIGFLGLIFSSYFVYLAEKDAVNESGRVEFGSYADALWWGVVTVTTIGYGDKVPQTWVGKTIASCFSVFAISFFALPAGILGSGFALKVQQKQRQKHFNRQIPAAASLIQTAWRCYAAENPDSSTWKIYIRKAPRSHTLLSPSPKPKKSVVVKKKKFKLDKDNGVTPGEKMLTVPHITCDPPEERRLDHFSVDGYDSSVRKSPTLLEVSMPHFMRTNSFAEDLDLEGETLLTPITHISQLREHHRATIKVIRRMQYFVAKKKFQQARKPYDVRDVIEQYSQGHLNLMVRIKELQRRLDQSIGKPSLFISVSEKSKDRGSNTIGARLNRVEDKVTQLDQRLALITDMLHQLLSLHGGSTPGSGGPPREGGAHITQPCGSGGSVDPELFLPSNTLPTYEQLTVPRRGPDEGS

IC50 [1]	IC50 [2]	SMILES
5000 nM	–	CCS(=O)(=O)N(C)[C@H]1c2cc(C#N)ccc2OC(C)(C)[C@@H]1O
–	58000 nM	CCCCS(=O)(=O)N(C)C1c2cc(C#N)ccc2OC(C)(C)C1O (configuration not stated)
–	2200 nM	CCS(=O)(=O)N(C)[C@@H]1c2cc(F)ccc2OC(C)(C)[C@H]1O
–	3100 nM	CCS(=O)(=O)N(C)C1c2ccccc2OC(C)(C)C1O (configuration not stated)
–	1200 nM	CCS(=O)(=O)N(C)C1c2cc(F)ccc2OC(C)(C)C1O (configuration not stated)
–	6900 nM	CCS(=O)(=O)N(C)C1c2cc(C#N)ccc2OC(C)(C)C1O (configuration not stated)
–	1100 nM	CN(C1c2cc(Cl)ccc2OC(C)(C)C1O)S(C)(=O)=O (configuration not stated)
44500 nM	–	CCS(=O)(=O)N(C)[C@@H]1c2cc(C#N)ccc2OC(C)(C)[C@H]1O
–	400 nM	CCS(=O)(=O)N(C)[C@@H]1c2cc(OCc3ccccc3)ccc2OC(C)(C)[C@H]1O
–	50 nM	CCS(=O)(=O)N(C)[C@H]1c2cc(OCc3ccccc3)ccc2OC(C)(C)[C@@H]1O
–	200 nM	CN(C1c2cc(OCc3ccccc3)ccc2OC(C)(C)C1O)S(C)(=O)=O (configuration not stated)
–	250 nM	CCCCOc1ccc2c(c1)C(N(C)S(C)(=O)=O)C(O)C(C)(C)O2 (configuration not stated)
